Test results published in US20250057823A1, “COMPOSITION FOR IMPROVING CARDIAC FUNCTION” (Kyoto University, priority 2021, published 2025).
Entries after “also recorded” stand apart in the source; their conditions may differ. Counter-ions that a name gives are not always drawn.

Key:
[1] = tested on: mouse models of pressure overload-induced cardiac hypertrophy/heart failure (TAC); assay: Mouse models of TAC heart failure during heart failure phase; assay type: in vivo; details: 50 mg/kg i.p. daily for 3 weeks starting 5 weeks after TAC
Description: (§1) Transverse aortic constriction (TAC) was performed as described previously [Date, et al. (2002) The antioxidant N-2-mercaptopropionyl glycine attenuates left ventricular hypertrophy in in vivo murine pressure-overload model. J Am Coll Cardiol 39: 907-912.]. Briefly, 8- to 10-week-old mice were anesthetized with anesthetic (0.3 mg/kg of medetomidine, 4.0 mg/kg of midazolam, and 5.0 mg/kg of butorphanol) administered intraperitoneally, and the proximal portion of the sternum was cut open to visualize the aorta. A 7-0 silk suture was placed around the aortic arch distal to the brachiocephalic artery. The suture was tightened firmly around a blunt 26-gauge needle placed adjacent to the aorta. The needle was then removed, and the chest and overlying skin were closed. Sham-operated mice underwent an identical surgical procedure without ligation of the aortic arch. At the end of the operation, 0.3 mg/kg of atipamezole was administered subcutaneously to reverse medetomidine. FIG. 1 is a schematic diagram of TAC.
Total RNA was reverse transcribed by blend primer of random hexamers and oligo-dT 3:1 (volume/volume) using Verso™ cDNA Synthesis Kit (Thermo Fisher Scientific, AB1453A) in accordance with the manufacturer's protocol, and the cDNA was analyzed by qRT-PCR. qRT-PCR measurements used THUNDERBIRD SYBR qPCR Mix (TOYOBO) in accordance with the manufacturer's instructions. Expression levels of messenger RNAs (mRNAs) were normalized by the indicated housekeeping genes, and calculated by the 2^−ΔΔCt method. All analyses were performed using a StepOnePlus real-time PCR system and StepOne Software v2.3 (Applied Biosystems, Inc).
Tissues were fixed with 4% paraformaldehyde, dehydrated with 70% ethanol, and then embedded in paraffin. Deparaffinized sections were stained with hematoxylin solution for cell nucleus, and stained with eosin solution for cytoplasm. Images were captured by Axio Observer7 (Zeiss). Cardiomyocyte cross-sectional area measurement was performed using ImageJ64 software (NIH). Approximately 150-200 cells were measured per heart, and averages were used for the analysis.
As described above, deparaffinized sections were stained with hematoxylin solution for cell nucleus, Masson solution for cytoplasm, and aniline blue for collagen fiber. Images were captured by a microscopy (BZ-9000, Keyence). Aniline blue-stained regions were measured using ImageJ64 software (NIH).
(§2) To analyze the cardiac function, we used Vevo® 2100 (VISUALSONICS) at the indicated time points after TAC operation. Mice were kept under inhalation anesthesia with 2.5% isoflurane. LV function was measured in M mode of the parasternal short-axis view.
Mouse models of pressure overload-induced cardiac hypertrophy/heart failure were prepared by TAC and were injected intraperitoneally with 50 mg/kg of KUS121 daily for 3 weeks starting 5 weeks after TAC. Sham-operated mice and control mice were injected with 5% glucose. Echocardiography was performed 5 weeks and 8 weeks after TAC. Eight weeks after TAC, the mice were sacrificed, the body weight and heart weight were measured, and heart samples were collected.

[2] = tested on: TAC mice; assay: Acute effect on mouse models of heart failure (TAC, single injection 5 weeks later); assay type: in vivo
Description: as §1, §2
Mice were subjected to TAC at 8 weeks of age. Five weeks later (at 13 weeks of age), the mice were injected with KUS121 (50 mg/kg), and left ventricular ejection fraction (LVEF), left ventricular end-diastolic diameter (LVDd), and heart rate (HR) were assessed by echocardiography before and 10 minutes after the injection.
Mice were subjected to TAC at 8 weeks of age. Five weeks later (at 13 weeks of age), the mice were injected with KUS121 (50 mg/kg), and left ventricular pressure was measured by catheterization before and 10 minutes after the injection. The left ventricular pressure was 46.6 mmHg before KUS121 administration, and increased to 128.9 mmHg 10 minutes after the administration. In addition, Max/min dp/dt was changed from 1295.5/−621.4 mmHg/s to 3972.8/−1311.1 mmHg/s. […] Left ventricular ejection fraction was then measured over time and was 37% before KUS121 administration, increased to 67% 5 minutes after the administration, and returned to the baseline about 2 hours after the administration (FIG. 16).
Mice were subjected to TAC at 8 weeks of age. Five weeks later (at 13 weeks of age), the mice were injected with KUS187 (50 mg/kg), and left ventricular ejection fraction was assessed by echocardiography before and 10 minutes after the injection.

[3] = TAC mice 5 weeks after TAC, 50 mg/kg, echocardiography before and 10 minutes after injection

Cc1cc(F)ccc1-c1ccc(/N=N/c2cc(S(=O)(=O)O)c3ccccc3c2N)cn1 [KUS121, 4-amino-3-[6-(4-fluoro-2-methylphenyl)pyridine-3-ylazo]naphthalene-1-sulfonic acid sodium salt]
cardiomyocyte cross-sectional area ([1]; TAC mice): suppressed it | fibrotic area in Masson's trichrome-stained heart ([1]; TAC mice): suppressed | heart weight ([1]; TAC mice, 8 weeks after TAC): suppressed the increase in heart weight | left ventricular systolic dysfunction (LVEF, echocardiography) ([1]; TAC mice, 8 weeks after TAC): suppressed the dysfunction | mRNA level of Col1a1 (cardiac fibrosis marker) ([1]; heart, qRT-PCR): suppressed | mRNA level of Postn (cardiac fibrosis marker) ([1]; heart, qRT-PCR): suppressed | mRNA level of VCP ([1]; heart, qRT-PCR): increased the mRNA level of VCP | mRNA levels of ANF, BNP, CHOP and Bip (other cardiac hypertrophy and endoplasmic reticulum stress markers) ([1]; heart, qRT-PCR): did not significantly affect the other mRNA levels | left ventricular ejection fraction ([2]; 5 minutes after 50 mg/kg, 37% before administration): 67% | heart rate (HR) ([2]; TAC mice 5 weeks after TAC, 50 mg/kg, before and 10 minutes after injection, sodium salt, 50 mg/kg): without significantly affecting heart rate; also recorded: without affecting HR | left ventricular ejection fraction (LVEF) [2, 3]: Recoveries | left ventricular end-diastolic diameter (LVDd) [2, 3]: Recoveries | time after administration at which left ventricular ejection fraction returned to the baseline ([2]; TAC mice, 50 mg/kg, LVEF measured over time): about 2 hours | left ventricular pressure ([2]; catheterization, 10 minutes after 50 mg/kg, 46.6 mmHg before administration): 128.9 mmHg | Max dp/dt ([2]; catheterization, 10 minutes after 50 mg/kg, 1295.5 mmHg/s before administration): 3972.8 mmHg/s | min dp/dt ([2]; catheterization, 10 minutes after 50 mg/kg, −621.4 mmHg/s before administration): −1311.1 mmHg/s
